Results taken from patent publication US9918983B2, “Suicidal LSD1 inhibitors targeting SOX2-expressing cancer cells” (THE BOARD OF REGENTS OF THE NEVADA SYSTEM OF HIGHER …, priority 2013, dated 2018).

Legend:
PA-1 cells = test: Cell growth/viability (MTT, microscopy); type: cell-based, human; settings: PA-1 cells, 50 μM, 30 hours
Protocol: (§1) Lung, breast, ovarian, and other carcinoma cells were either obtained from American Type Culture Collection (ATCC) or from the DTP and DCTD Tumor Repository of National Cancer Institute (the NCI-60 cancer cell line panel), operated by Charles River Laboratory, Inc., as listed in Table 1. They were cultured according to instructions and treated with various concentrations of LSD1 inhibitors for 30-36 hours for mRNA analysis by quantitative real time RT-PCR or for 30-48 hours for protein analysis and the cell viability assays using Western blotting or microscopy and MTT assays as described previously (Wang, J., et al. (2011) Cancer Research 71, 7238-7249).
(§2) Alternatively, cell viability assays were conducted as previously described (Wang, J., et al. (2011) Cancer Research 71, 7238-7249). For the MTT assay, cells were seeded onto 96-well culture plates with a density of 2000-5000 cells/well, and incubated with CBB1003 or CBB1007 at various concentrations from 1 to 100 μM for 30-48 hours, depending cell growth rate. Dimethylsulfoxide (DMSO) was used as a solvent control. MTT was added to a final concentration of 0.5 mg/mL and cells were re-incubated for 4 hours. After removing the medium, 200 μL DMSO was added to dissolve formazan, followed by incubation for 10 minutes, and absorbance was measured at 490 nm by a Bio Red microplate reader. All assays were performed in triplicates for each concentration. The cell viability rate was calculated as the relative percentage of MTT absorption as follows: % cell viability=(mean experimental absorbance/mean control absorbance)×100.
(§3) Table 8 below lists activity of CBB3001 (compound 10) in Sox2-negative (ES-2) and Sox2-expressing (PA-1 and T47D) cancer cells determined in a cell-based assay as described herein (see also FIG. 3A-C).

BT-549 cells = test: Cell growth/viability (MTT, microscopy); type: cell-based, human; settings: BT549 cells, 50 μM, 30 hours
Protocol: as §1, §2

HS38.T cells = test: Cell growth/viability (MTT, microscopy); type: cell-based, human; settings: 50 μM, 30 hours
Protocol: as §1, §2

IGROV-1 cells = test: Cell growth/viability (MTT, microscopy); type: cell-based, human; settings: 50 μM, 30 hours
Protocol: as §1, §2

MCF7 cells = test: Cell growth/viability (MTT, microscopy); type: cell-based, human; settings: 50 μM, 30 hours
Protocol: as §1, §2

SK-BR-3 cells = test: Cell growth/viability (MTT, microscopy); type: cell-based, human; settings: 50 μM, 30 hours
Protocol: as §1, §2

SKOV-3 cells = test: Cell growth/viability (MTT, microscopy); type: cell-based, human; settings: 50 μM, 30 hours
Protocol: as §1, §2

ES-2 cells = test: Cell growth/viability (MTT, microscopy); type: cell-based, human; settings: ES-2 cells, 50 μM, 30 hours
Protocol: as §1
as §2, with “For the MTT assay, cells were seeded onto 96-well culture plates with a density of 2000-5000 cells/well, and incubated with CBB1003 or CBB1007 at various concentrations from 1 to 100 μM for 30-48 hours, depending cell growth rate.” left out
as §3

A549 cells = test: Cell growth/viability (MTT, microscopy); type: cell-based, human; settings: 50 μM, 30 hr
Protocol: as §1
as §2, with “absorbance)×100. […]” for “absorbance)×100.”
(§4) Referring to FIG. 5C, the percent viability of cells treated with LSD1 inhibitors or siRNAs compared with control cells, as determined by 3-(4,5-dimethylthiazol-2-yl)-2,5-diphenyltetrazolium bromide (MTT) assay is shown. […] The statistical differences between inhibitor-treated and control groups were analyzed by one-way ANOVA (scale bar=[…]; **p<0.01).

NCI-H1437 cells = test: Cell growth/viability (MTT, microscopy); type: cell-based, human; settings: 24-30 hr (50 μM, 30 hr in FIG. 5B)
Protocol: as §1
as §2, with “absorbance)×100. […]” for “absorbance)×100.”
as §4

NCI-H520 cells = test: Cell growth/viability (MTT, microscopy); type: cell-based, human; settings: 24-30 hr (50 μM, 30 hr in FIG. 5B)
Protocol: as §1
as §2, with “absorbance)×100. […]” for “absorbance)×100.”
as §4

G401 cells = test: Cell growth/viability (MTT, microscopy); type: cell-based, human; settings: 50 μM, 30 hours
Protocol: as §1
Alternatively, cell viability assays were conducted as previously described (Wang, J., et al. (2011) Cancer Research 71, 7238-7249). […] After removing the medium, 200 μL DMSO was added to dissolve formazan, followed by incubation for 10 minutes, and absorbance was measured at 490 nm by a Bio Red microplate reader. […] The cell viability rate was calculated as the relative percentage of MTT absorption as follows: % cell viability=(mean experimental absorbance/mean control absorbance)×100.
Referring to FIG. 10B, Sox2-expressing myelogenous leukemia and rhabdoid tumor cells were also sensitive to LSD1 inhibitors. […] The statistical differences between compound treated and control groups were analyzed by One-way ANOVA. *: p<0.05 and **: p<0.01.

Sox2 = Sox2 protein level by western blotting in carcinoma cells; type: cell-based, human; set-up: dose or concentration left out as unconfirmed; settings: indicated carcinoma cells, 30 hr
Description: Log-phase growing cancer cells were directly lysed in a buffer containing 0.5% SDS. Proteins in the lysates were equalized and analyzed by Western blotting using antibodies against Sox2, LSD1, H3K4Me1, H3K4Me2, Oct4, and other proteins as described previously or in the figure descriptions (Wang, J., et al. (2011) Cancer Research 71, 7238-7249). For immunohistochemical staining, rabbit monoclonal anti-LSD1 (clone C69G12, cat. #2184) and anti-Sox2 (clone D6D9, cat. #3579) antibodies were obtained from Cell Signaling. Rabbit anti-Sox2 polyclonal antibodies were raised using the purified GST-Sox2 fusion protein as the antigen.
Referring to FIG. 11A, inactivation of LSD1 by LSD1 inhibitors or siRNAs caused the downregulation of Sox2. The indicated carcinoma cells were treated with […] of the LSD1 inhibitors CBB1007 and CBB1003 for 30 hr or with 50 nM of Luc or LSD1 siRNAs for 60 hr. The protein levels of LSD1, Sox2, Lin28, CUL1, and histone H3 were analyzed by western blotting.

[1] = biological target: T1, recombinant HDAC1 (GST-HDAC1) (Homo sapiens, UniProt Q13547); test: In vitro deacetylation assay, recombinant HDAC1, H4K16ac peptide; type: biochemical; settings: LSD1 and HDAC1 without CoREST
T1 construct: Human LSD1 and HDAC1 full-length cDNAs were obtained from Open Biosystems; GST (N, cleaved yes); made in house; host or cells: Escherichia coli BL21
T1 sequence (Q13547 whole entry): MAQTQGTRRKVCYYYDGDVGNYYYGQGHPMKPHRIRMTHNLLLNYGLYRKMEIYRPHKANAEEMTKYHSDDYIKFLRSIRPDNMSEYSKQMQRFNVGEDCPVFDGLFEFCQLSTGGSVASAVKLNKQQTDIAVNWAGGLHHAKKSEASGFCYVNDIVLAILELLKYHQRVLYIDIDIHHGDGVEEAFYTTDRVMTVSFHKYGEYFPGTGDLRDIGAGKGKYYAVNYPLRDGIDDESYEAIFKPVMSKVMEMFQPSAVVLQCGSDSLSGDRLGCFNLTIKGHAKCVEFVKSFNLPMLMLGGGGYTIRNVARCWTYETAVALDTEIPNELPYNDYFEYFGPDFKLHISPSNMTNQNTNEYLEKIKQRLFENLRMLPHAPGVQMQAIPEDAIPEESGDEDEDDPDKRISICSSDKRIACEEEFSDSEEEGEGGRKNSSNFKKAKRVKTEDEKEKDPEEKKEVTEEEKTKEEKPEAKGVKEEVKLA
Description: Human LSD1 and HDAC1 full-length cDNAs were obtained from Open Biosystems. […] These cDNAs were fully sequenced and cloned into the pGEX-KG or pET28a vector and expressed as the glutathione S-transferase (GST)- or His-tagged fusion proteins in the Escherichia coli BL21 strain and affinity purified with glutathione or Ni-Sepharose (GE Healthcare, United Kingdom) resin. […] The GST tag and uncut GST-HDAC1/GST-LSD1 proteins were depleted by glutathione-Sepharose. For the reconstitution reaction, recombinant GST-CoREST, His-LSD1, and recombinant HDAC1 (rHDAC1) (GST was removed by the use of PreScission protease) (10 μg) were assembled into the LSD1-CoREST-HDAC1 complex and then pulled down by GSTSepharose resins. Protein A-Sepharose was used as a negative-control resin.
The percentages of deacetylated products were analyzed by mass spectrometry, and the data were analyzed by GraphPad Prism (version 5) software.

COC(=O)c1cc(CN2CCN(C(=N)N)CC2)cc(C(=O)N2CCN(C(=O)c3ccc(C(=N)N)cc3)CC2)c1 [CBB1007]
cell growth (PA-1 cells): sensitive
cell growth (BT-549 cells): not sensitive
cell growth (HS38.T cells): not sensitive
cell growth (IGROV-1 cells): sensitive
cell growth (MCF7 cells): sensitive
cell growth (SK-BR-3 cells): not sensitive
cell growth (SKOV-3 cells): sensitive
cell growth (ES-2 cells): not sensitive
cell growth (A549 cells): specifically inhibited the growth
cell growth (NCI-H1437 cells): no detectable effects
cell growth (NCI-H520 cells): selectively and specifically inhibit the growth
cell growth (G401 cells): inhibited
Sox2 protein level (Sox2): downregulation
HDAC1 activity in the absence of CoREST [1]: not inhibited
